The subject of this experiment is PDGFRA D842V-mutant GIST. Kind of experiment: Phase 1 dose escalation and expansion study in advanced GIST: efficacy (mRECIST 1.1, central radiology). Format: in vivo, human. To be noted: for OS (estimated): median follow up 15.9 months. From the text: Patients: Eligibility criteria for the phase 1 dose escalation and expansion study included provision of written informed consent, age ≥18 years, Eastern Cooperative Oncology Group performance status ≤2, and adequate end-organ function. The dose escalation part of the trial was open to patients with refractory solid tumors or unresectable GIST; however, only GIST patients were enrolled. Patients with unresectable GIST who had one or more measurable target lesion per modified Response Evaluation Criteria in Solid Tumors version 1.1 (mRECIST 1.1) were eligible for the dose expansion, which included three cohorts: patients with PDGFRA D842V-mutant GIST regardless of prior therapy; patients who progressed following imatinib and one or more other kinase inhibitors; and patients who received only imatinib.
Study Design: The primary endpoints of the phase 1, open-label dose escalation/expansion study were safety and tolerability of Compound (I) administered orally once daily and overall response rate (ORR) for each expansion cohort. Part 1 followed a 3+3 dose-escalation design, starting at 30 mg and continuing until the maximum tolerated dose (MTD) or the recommended phase 2 dose (RP2D) below the MTD was determined. Intrapatient dose escalation was permitted, and additional accrual was allowed to dose levels previously determined tolerable. The part 1 MTD was used to initiate the part 2 expansion. Treatment with Compound (I) was continued until precluded by toxicity, noncompliance, withdrawal of consent, physician decision, progressive disease, death, or closure of the study.
Safety and Response Assessments: Adverse events were evaluated at each visit from the start of study drug administration up to 30 days after the final dose of Compound (I) and were graded according to the National Cancer Institute Common Terminology Criteria for Adverse Events (NCI CTCAE) version 4.03. All patients underwent tumor imaging for response assessment via computed tomography (CT) or magnetic resonance imaging (MRI) at screening, every two cycles through and including cycle 13, then every three months until progression or discontinuation. Target and non-target lesions were identified and assessed per mRECIST 1.1 for GIST by independent, blinded, central radiographic review (BioTelemetry, Inc., Rockville, MD, USA).
Statistical Methods: The MTD, defined as the highest dose level with ≤1 cycle 1 dose limiting toxicity in six patients, was determined from all part 1 patients who completed cycle 1 and received at least 75% of their prescribed doses or experienced a dose limiting toxicity (DLT) (dose-determining population). The efficacy population included patients who received at least one dose of Compound (I) enrolled in part 1 or part 2 with PDGFRα D842V-mutant GIST who had one or more target lesions and at least one post-baseline disease assessment by central radiology. For the primary endpoint of partial or complete response, a sample size of 31 patients allowed testing the null hypothesis of overall response rate ≤10% versus the alternative hypothesis of objective response rate ≥35% with 90% power, assuming a 2-sided type I error rate of 0.05. Kaplan-Meier methods were used to estimate duration of response, PFS and OS, including the median with 95% confidence intervals. Estimated duration of response, PFS, and OS rates at 3-, 6-, and 12-months were also calculated.

The structures appear in SMILES notation.

On to `Cn1cc(-c2cc3c(N4CCN(c5ncc([C@@](C)(N)c6ccc(F)cc6)cn5)CC4)ncnn3c2)cn1` [Compound (I), (S)-1-(4-fluorophenyl)-1-(2-(4-(6-(1-methyl-1H-pyrazol-4-yl)pyrrolo[2,1-f][1,2,4]triazin-4-yl)piperazin-1-yl)pyrimidin-5-yl)ethan-1-amine], for which, where the note is “300 mg (n = 28)”, the “CBR (CR + PR + SD)” value is reported as “(96.4) %”; the “CBR (CR + PR + SD), number of patients” value stood at 27 n; the CR result is “(3.6) %”; the “CR, number of patients” value came to 1 n. Also, where the note is “300 mg (n = 28)”, the “ORR (CR + PR), number of patients” value is 26 n; the “PD, number of patients” value amounted to 0 n; the PR result is given as “(89.2) %”; the “PR, number of patients” value was 25 n. Besides, the “Progression free survival rate” value (3-month) is given as 100%. Moreover, the “Progression free survival rate” value (6-month) amounted to 94%. Also, the “OS (estimated)” value (6 months) is reported as 100%. Further, the “Progression free survival rate” value (12-month) is listed as 90%. Besides, where the note is “12 months”, the “OS (estimated)” value was 91%. For the same compound, the “OS (estimated)” value (24 months) is recorded as 81%. Moreover, where the note is “All Doses (n = 56)”, the “CBR (CR + PR + SD), number of patients” value amounted to 53 n; the “CR, number of patients” value is given as 5 n; the “ORR (CR + PR), number of patients” value is listed as 49 n; the “PD, number of patients” value came out at 0 n. Moreover, the “PR, number of patients” value (All Doses (n = 56)) came out at 44 n. For the same compound, where the note is “all dose levels”, the “Median PFS” value is “not reached” and the “Median duration of response” value is on record as “not reached”. Also, where the note is “all dose levels, Kaplan-Meier”, the “12-month duration of response” value stood at 70%.
